Common to all, as to assay type: cell-based
The test system of assay [1] is latent HIV in U1 cells. Briefly: Reactivation of latent HIV in U1 cells by RT-qPCR. The conditions noted are these: Na-Cro at 40 mM. The procedure:
(§1) Cell culture: J-Lat Al cells (derived from Jurkat cells harboring HIV LTR-Tat-GFP gene) and U1 cells (promonocytic cell line harboring one copy of HIV genome with defective tat gene) were obtained from NIH AIDS Reagent Program and cultured at 37° C. with 5% CO2 in RPM11640 medium containing 10% FBS and 1% penicillin-streptomycin as previously described (see G. Jiang, et al. PLoS Pathogens 11, e1005066 (2015)).
(§2) For inhibiting ACSS2 and crotonylation, cells were pretreated with ACSS2 inhibitor, AR12 (SELLECK CHEMICALS™, Houston, Tex.), for 30 minutes, followed by Na-Cro treatment for 4 or 18 hours.
Real-Time PCR Analysis: HIV gene expression was measured using real-time PCR in J-Lat Al cells treated with LRAs. Total nucleic acid was extracted using RNEASY™ Kit, genomic DNA digested using DNase I and total RNA reverse transcribed using Superscript III to synthesize cDNA. […] […] TAMRA-3′ (SEQ ID NO:3).
(Real-time PCR tracks product formation cycle by cycle.)

The test system of assay [2] is latent HIV in U1 cells. Kind of assay: p24 ELISA in U1 cells. The note with it: day 6. The procedure:
as §1, §2
Background: In an ELISA, binding on a coated surface is turned into a signal by an enzyme label.

Another assay has as its system ACSS2. Briefly: ACSS2 expression in J-Lat A1 cells. The conditions noted are these: Na-Cro treatment. An excerpt:
FIG. 3 is a series of graphs showing that suppression of acetyl-CoA synthetase 2 (ACSS2) enzyme disrupts crotonyl-CoA induced reactivation of latent HIV. Panel A illustrates that Na-Cro addition to J-Lat Al cells increased expression of ACSS2 enzyme. **, p<0.01 compared with control treatment. Panel B illustrates expression of ACSS2 after ACSS2 siRNA knockdown in TZM-bl HIV reporter cells. **, p<0.01 compared with control siRNA. Panel C illustrates knockdown of ACSS2 decreased Na-Cro-driven HIV transcription. *, p<0.05 compared with control siRNA. Panels D and E illustrate that pretreatment with ACSS2 inhibitor, AR12, dampens reactivation of latent HIV (see panel D) by inhibition of histone crotonylation (see panel E) at the HIV LTR. **, p<0.01 and ***, p<0.001, compared with control treatment. ##, p<0.01 and ###, p<0.001 compared with Na-Cro treatment.

In assay [3] the test system is latent HIV in primary CD4+ T cells from HIV-infected patients under suppressive ART. Kind of assay: HIV transcription by ddPCR in primary CD4+ T cells from HIV-infected patients. The note with it: primary CD4+ T cells of 6 patients; 40 mM Na-Cro or 12 nM PEP005; 6 hours; ddPCR. The protocol:
Panels A-C illustrate that primary CD4+ T cells were treated with […] PMA 2 plus 2 μg/ml ionomycin, 12 nM PEP005, 40 mM Na-Cro, or 12 nM PEP005 combined with 40 mM Na-Cro for 6 hours. Viral transcription from total RNA was analyzed by RT-ddPCR with primers targeting initiation (TAR region) (see panel A), elongation (long LTR) (see panel B), or full transcription (poly A region) (see panel C) of the HIV genome. Panel D illustrates a working model of epigenetic regulation of HIV latency/transcription by histone crotonylation.
To validate this finding in the ex vivo primary CD4+ T cells from patients the peripheral blood samples from 6 HIV-infected patients under suppressive ART were obtained. They had undetectable plasma viral load (<20 copies/ml plasma) and >400 CD4+ T cell number per […] (see Table 1). Primary CD4+ T cells were treated with PMA/Ionomycin, PEP005, Na-Cro, or PEP005 in combination with Na-Cro for 6 hours. HIV transcription following reactivation was measured by digital droplet PCR (ddPCR) targeting TAR region (initiation), long LTR region (elongation), or Poly A region (full transcription) of HIV genome (see G. Jiang, et al. PLoS pathogens 11, e1005066 (2015); P. Kaiser, et al. Journal of virological methods 242, 1-8 (2017); and L. Shan, et al. Journal of Virology 87, 6521-6525 (2013)).
Primary CD4+ T Cell Isolation, Treatment, and Digital Droplet PCR Assays: Peripheral blood samples were obtained from HIV-infected individuals (age ranging from 46-62 years old) on suppressive ART for >8 years (n=6). The plasma viral loads were below the detective level (<20 copies/ml plasma) and the average CD4+ T cell number was 664.4±180.5 cells/ml. The primary CD4+ T cells were isolated using the EASYSEP™ kit ([…]™ Technologies Inc., Vancouver, BC, Canada) as previously described (see G. Jiang, et al. PLoS pathogens 11, el 005066 (2015) and G. Jiang, et al. AIDS 28, 1555-1566 (2014)). The purified CD4+ T cells were plated at a density of 0.5-1×10^6 cells and treated with Control, 200 ng/ml PMA plus 2 μM lonomycin, 12 nM PEP005, 40 mM Na-Cro, or 12 nM PEP005 plus 40 mM Na-Cro for 6 hours. Cell pellets were collected for RNA isolation. Initiation, elongation, or full transcription of HIV was analyzed with ddPCR assays as reported before (see G. Jiang, et al. PLoS pathogens 11, e1005066 (2015); P. Kaiser, et al. Journal of virological methods 242, 1-8 (2017); and L. Shan, et al. Journal of virology 87, 6521-6525 (2013)).

With `C/C=C/C(=O)[O-].[Na+]` [Na-Cro, sodium crotonate], the “increase in viral transcription compared to untreated controls” value in the assay with latent HIV in U1 cells [1] was 6 fold. Also, the p24 antigen result in the assay with latent HIV in U1 cells [2] (20 mM Na-Cro) is “over 500 pg/mL”. The p24 antigen in the assay with latent HIV in U1 cells [2] (40 mM Na-Cro) is reported as > 2000 pg/mL. Moreover, in the assay with ACSS2, the “increase in ACSS2 expression” value was 70 fold. Also, in assay [3], the “elongation of HIV transcripts (long LTR), patients responding” value was “all 6 patients”; the “full-length transcription of HIV (poly A region), patients responding” value is 4 of the 6 patients; the “initiation of HIV transcription (TAR region), patients responding” value is “all 6 patients”.

The values above are taken from patent US20230087766A1, “METHODS OF REACTIVATING LATENT HUMAN IMMUNODEFICIENCY VIRUS AND RELATED COMPOSITIONS” (priority 2017, published 2023).
